According to ChEMBL document CHEMBL1152938, “Synthesis and structure-activity relationships of C-glycosylated oxadiazoles as inhibitors of glycogen phosphorylase” (Bioorg Med Chem, 2009):
Active and inactive are the calls of the source. No cut-off for these calls is given here.

Columns and labels:
[1] = molecular target: T1, Glycogen phosphorylase, muscle form (Oryctolagus cuniculus, UniProt P00489)
T1 sequence (P00489 whole entry): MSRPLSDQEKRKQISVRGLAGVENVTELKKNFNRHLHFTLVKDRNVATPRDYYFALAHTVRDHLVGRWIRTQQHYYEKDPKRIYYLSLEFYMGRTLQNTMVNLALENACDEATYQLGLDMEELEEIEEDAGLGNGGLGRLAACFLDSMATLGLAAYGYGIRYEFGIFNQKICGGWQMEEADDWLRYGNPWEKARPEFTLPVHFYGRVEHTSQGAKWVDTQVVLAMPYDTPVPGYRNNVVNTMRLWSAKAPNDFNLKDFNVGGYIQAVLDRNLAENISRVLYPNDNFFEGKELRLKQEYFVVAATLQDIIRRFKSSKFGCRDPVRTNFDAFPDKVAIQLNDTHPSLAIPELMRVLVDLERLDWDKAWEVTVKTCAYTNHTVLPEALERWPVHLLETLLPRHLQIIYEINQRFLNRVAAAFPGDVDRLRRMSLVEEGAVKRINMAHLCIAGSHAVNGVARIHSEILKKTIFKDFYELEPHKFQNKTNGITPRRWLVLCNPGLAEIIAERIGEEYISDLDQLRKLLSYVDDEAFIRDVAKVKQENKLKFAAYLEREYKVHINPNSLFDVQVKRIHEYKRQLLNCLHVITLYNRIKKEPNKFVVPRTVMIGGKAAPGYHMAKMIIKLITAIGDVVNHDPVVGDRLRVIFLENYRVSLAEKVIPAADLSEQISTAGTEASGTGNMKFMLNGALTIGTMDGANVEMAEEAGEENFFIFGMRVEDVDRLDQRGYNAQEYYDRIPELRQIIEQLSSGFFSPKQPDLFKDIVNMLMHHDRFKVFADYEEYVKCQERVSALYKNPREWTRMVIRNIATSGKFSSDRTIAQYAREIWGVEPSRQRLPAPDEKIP

[2] = molecular target: T2, Glycogen phosphorylase, muscle form (Oryctolagus cuniculus) (UniProt P00489); experiment: Inhibition of rabbit muscle glycogen phosphorylase b at 625 uM
T2 sequence (whole entry): T1 sequence (P00489 whole entry)

| SMILES | Ki [1] [µM] | inhibition [2] | also measured |
| --- | --- | --- | --- |
| OC[C@H]1O[C@@H](c2nc(-c3ccccc3)no2)[C@H](O)[C@@H](O)[C@@H]1O | 64 | – | – |
| Cc1ccc(-c2noc([C@@H]3O[C@H](CO)[C@@H](O)[C@H](O)[C@H]3O)n2)cc1 | 8.8 | – | – |
| O=C(NC(=O)c1ccc([N+](=O)[O-])cc1)N[C@@H]1O[C@H](CO)[C@@H](O)[C@H](O)[C@H]1O | 3.3 | – | – |
| OC[C@H]1O[C@@H](c2nnc(-c3ccc4ccccc4c3)o2)[C@H](O)[C@@H](O)[C@@H]1O | – | 10% | – |
| OC[C@H]1O[C@@H](c2nnc(-c3ccccc3)o2)[C@H](O)[C@@H](O)[C@@H]1O | – | 10% | – |
| O=C(NC(=O)c1cccc2ccccc12)N[C@@H]1O[C@H](CO)[C@@H](O)[C@H](O)[C@H]1O | 15 | – | – |
| OC[C@H]1O[C@@H](c2noc(-c3ccc4ccccc4c3)n2)[C@H](O)[C@@H](O)[C@@H]1O | 38 | – | – |
| O=[N+]([O-])c1ccc(-c2nc([C@@H]3O[C@H](CO)[C@@H](O)[C@H](O)[C@H]3O)no2)cc1 | – | inactive | – |
| Nc1ccc(C(=O)NC(=O)N[C@@H]2O[C@H](CO)[C@@H](O)[C@H](O)[C@H]2O)cc1 | 6 | – | – |
| Cc1ccc(-c2nc([C@@H]3O[C@H](CO)[C@@H](O)[C@H](O)[C@H]3O)no2)cc1 | – | – | IC50 [1]: 350 µM |
| COc1ccc(-c2noc([C@@H]3O[C@H](CO)[C@@H](O)[C@H](O)[C@H]3O)n2)cc1 | 20.4 | – | – |
| Cc1nc([C@@H]2O[C@H](CO)[C@@H](O)[C@H](O)[C@H]2O)no1 | – | inactive | – |
| OC[C@H]1O[C@@H](c2nc(-c3ccc(O)cc3)no2)[C@H](O)[C@@H](O)[C@@H]1O | 19.4 | – | – |
| Nc1ccc(-c2noc([C@@H]3O[C@H](CO)[C@@H](O)[C@H](O)[C@H]3O)n2)cc1 | – | 20% | – |
| OC[C@H]1O[C@@H](c2nc(-c3ccc4ccccc4c3)no2)[C@H](O)[C@@H](O)[C@@H]1O | 2.4 | – | – |
| COc1ccc(-c2nnc([C@@H]3O[C@H](CO)[C@@H](O)[C@H](O)[C@H]3O)o2)cc1 | – | inactive | – |
| Nc1ccc(-c2nnc([C@@H]3O[C@H](CO)[C@@H](O)[C@H](O)[C@H]3O)o2)cc1 | – | inactive | – |

| SMILES | Ki [1] [µM] | inhibition [2] | also measured |
| --- | --- | --- | --- |
| COc1ccc(-c2nc([C@@H]3O[C@H](CO)[C@@H](O)[C@H](O)[C@H]3O)no2)cc1 | – | – | IC50 [1]: 550 µM |
| Cc1ccc(-c2nnc([C@@H]3O[C@H](CO)[C@@H](O)[C@H](O)[C@H]3O)o2)cc1 | – | inactive | – |
| OC[C@H]1O[C@@H](c2nc3ccccc3s2)[C@H](O)[C@@H](O)[C@@H]1O | 76 | – | – |
| O=[N+]([O-])c1ccc(-c2nnc([C@@H]3O[C@H](CO)[C@@H](O)[C@H](O)[C@H]3O)o2)cc1 | – | inactive | – |
| OC[C@H]1O[C@@H](c2nc(-c3ccc(OCc4ccccc4)cc3)no2)[C@H](O)[C@@H](O)[C@@H]1O | – | inactive | – |
| O=[N+]([O-])c1ccc(-c2noc([C@@H]3O[C@H](CO)[C@@H](O)[C@H](O)[C@H]3O)n2)cc1 | – | – | IC50 [1]: 650 µM |
| O=C(NC(=O)c1ccc(O)cc1)N[C@@H]1O[C@H](CO)[C@@H](O)[C@H](O)[C@H]1O | 6.3 | – | – |
| OC[C@H]1O[C@@H](c2nnc(-c3cccc4ccccc34)o2)[C@H](O)[C@@H](O)[C@@H]1O | – | 10% | – |
| OC[C@H]1O[C@@H](c2nc(-c3ccc4c(c3)OCO4)no2)[C@H](O)[C@@H](O)[C@@H]1O | – | – | IC50 [1]: > 625 µM |
| Cc1ccc(C(=O)NC(=O)N[C@@H]2O[C@H](CO)[C@@H](O)[C@H](O)[C@H]2O)cc1 | 2.3 | – | – |
| OC[C@H]1O[C@@H](c2nnc(-c3ccc(O)cc3)o2)[C@H](O)[C@@H](O)[C@@H]1O | – | inactive | – |
| OC[C@H]1O[C@@H](c2nc(-c3cccc4ccccc34)no2)[C@H](O)[C@@H](O)[C@@H]1O | 19 | – | – |
| Cc1nnc(C2O[C@H](CO)[C@@H](O)[C@H](O)[C@H]2O)o1 (single isomer, unassigned) | 145 | – | – |
| OC[C@H]1O[C@@H](c2noc(-c3cccc4ccccc34)n2)[C@H](O)[C@@H](O)[C@@H]1O | – | inactive | – |
| Cc1ccc(C(=O)N[C@@H]2O[C@H](CO)[C@@H](O)[C@H](O)[C@H]2O)cc1 | – | – | IC50 [1]: 4500 µM |
| OC[C@H]1O[C@@H](c2noc(-c3ccccc3)n2)[C@H](O)[C@@H](O)[C@@H]1O | – | 10% | – |
